# Experimental data taken from patent US20100099561A1, “HETEROBICYCLIC ALKYLTHIO-BRIDGED ISOXAZOLINES” (E.I. DU PONT DE NEMOURS AND COMPANY, priority 2008, published 2010).
# How the values were obtained:
# Assay type in all cases: in vivo
# [1] = tested on: velvetleaf (Abutilon theophrasti); assay: Test A preemergence, velvetleaf; details: 0 to 100 scale (0 no effect, 100 complete control)
# Excerpt: (§1) Seeds of barnyardgrass (Echinochloa crus-galli), large crabgrass (Digitaria sanguinalis), giant foxtail (Setaria faberi), morningglory (Ipomoea spp.), pigweed (Amaranthus retroflexus), velvetleaf (Abutilon theophrasti), wheat (Triticum aestivum), and corn (Zea mays) were planted into a blend of loam soil and sand and treated preemergence with a directed soil spray using test chemicals formulated in a non-phytotoxic solvent mixture which included a surfactant. At the same time these species were also treated with postemergence applications of test compounds formulated in the same manner. Plants ranged in height from two to ten cm and were in the one- to two-leaf stage for the postemergence treatment. Treated plants and untreated controls were maintained in a greenhouse for approximately ten days, after which time all treated plants were compared to untreated controls and visually evaluated for injury. Plant response ratings, summarized in Table A, are based on a 0 to 100 scale where 0 is no effect and 100 is complete control. A dash (-) response means no test result.
# rice (Oryza sativa) = assay: Test B flooded paddy test, rice; details: Flood, scale 0 to 100
# Excerpt: (§2) Plant species in the flooded paddy test consisted of rice (Oryza sativa), umbrella sedge (Cyperus difformis), ducksalad (Heteranthera limosa) and barnyardgrass (Echinochloa crus-galli) grown to the 2-leaf stage for testing. At time of treatment, test pots were flooded to 3 cm above the soil surface, treated by application of test compounds directly to the paddy water, and then maintained at that water depth for the duration of the test. Treated plants and controls were maintained in a greenhouse for 13 to 15 days, after which time all species were compared to controls and visually evaluated. Plant response ratings, summarized in Table B, are based on a scale of 0 to 100 where 0 is no effect and 100 is complete control. A dash (-) response means no test result.
# [2] = tested on: ducksalad (Heteranthera limosa); assay: Test B flooded paddy test, ducksalad; details: Flood, scale 0 to 100
# Excerpt: as §2
# [3] = tested on: morningglory (Ipomoea spp.); assay: Test A postemergence, morningglory; details: 0 to 100 scale (0 no effect, 100 complete control)
# Excerpt: as §1
# [4] = tested on: morningglory (Ipomoea spp.); assay: Test A preemergence, morningglory; details: 0 to 100 scale (0 no effect, 100 complete control)
# Excerpt: as §1
# [5] = tested on: giant foxtail (Setaria faberi); assay: Test A preemergence, giant foxtail; details: 0 to 100 scale (0 no effect, 100 complete control)
# Excerpt: as §1
# [6] = tested on: umbrella sedge (Cyperus difformis); assay: Test B flooded paddy test, umbrella sedge; details: Flood, scale 0 to 100
# Excerpt: as §2
# [7] = tested on: wheat (Triticum aestivum); assay: Test A postemergence, wheat; details: 0 to 100 scale (0 no effect, 100 complete control)
# Excerpt: as §1
# [8] = tested on: wheat (Triticum aestivum); assay: Test A preemergence, wheat; details: 0 to 100 scale (0 no effect, 100 complete control)
# Excerpt: as §1
# corn (Zea mays) [9] = assay: Test A preemergence, corn; details: 0 to 100 scale (0 no effect, 100 complete control)
# Excerpt: as §1
# [10] = tested on: barnyardgrass (Echinochloa crus-galli); assay: Test B flooded paddy test, barnyardgrass; details: Flood
# Excerpt: as §2
# corn (Zea mays) [11] = assay: Test A postemergence, corn; details: 0 to 100 scale (0 no effect, 100 complete control)
# Excerpt: as §1
# [12] = tested on: giant foxtail (Setaria faberi); assay: Test A postemergence, giant foxtail; details: 0 to 100 scale (0 no effect, 100 complete control)
# Excerpt: as §1
# [13] = tested on: pigweed (Amaranthus retroflexus); assay: Test A preemergence, pigweed; details: 0 to 100 scale (0 no effect, 100 complete control)
# Excerpt: as §1
# [14] = tested on: large crabgrass (Digitaria sanguinalis); assay: Test A preemergence, large crabgrass; details: 0 to 100 scale (0 no effect, 100 complete control)
# Excerpt: as §1
# [15] = tested on: barnyardgrass (Echinochloa crus-galli); assay: Test A preemergence, barnyardgrass; details: 0 to 100 scale (0 no effect, 100 complete control)
# Excerpt: as §1
# [16] = tested on: velvetleaf (Abutilon theophrasti); assay: Test A postemergence, velvetleaf; details: 0 to 100 scale (0 no effect, 100 complete control)
# Excerpt: as §1
# [17] = tested on: barnyardgrass (Echinochloa crus-galli); assay: Test A postemergence, barnyardgrass; details: 0 to 100 scale (0 no effect, 100 complete control)
# Excerpt: as §1
# [18] = tested on: large crabgrass (Digitaria sanguinalis); assay: Test A postemergence, large crabgrass; details: 0 to 100 scale (0 no effect, 100 complete control)
# Excerpt: as §1
# [19] = tested on: pigweed (Amaranthus retroflexus); assay: Test A postemergence, pigweed; details: 0 to 100 scale (0 no effect, 100 complete control)
# Excerpt: as §1
# [20] = 250 g ai/ha, scale 0 to 100 (0 no effect, 100 complete control)
structure (smiles),measurement,setting,value
CC1(C)CC([S+]([O-])Cc2c(C(F)(F)F)nc3n(c2=O)CCCO3)=NO1 (stereo not shown) [Compound 3],"Plant response rating, Velvetleaf",[1]; 125 g ai/ha,0
same,"Plant response rating, Velvetleaf",[1]; 500 g ai/ha,0
same,"Plant response rating, Rice",rice (Oryza sativa); 62 g ai/ha,0
same,"Plant response rating, Rice",rice (Oryza sativa); 250 g ai/ha,0
same,"Plant response rating, Ducksalad",[2]; 62 g ai/ha,0
same,"Plant response rating, Ducksalad",[2]; 250 g ai/ha,40
same,"Plant response rating, Morningglory",[3]; 125 g ai/ha,0
same,"Plant response rating, Morningglory",[3]; 500 g ai/ha,0
same,"Plant response rating, Morningglory",[4]; 125 g ai/ha,0
same,"Plant response rating, Morningglory",[4]; 500 g ai/ha,0
same,"Plant response rating, Foxtail, Giant",[5]; 125 g ai/ha,40
same,"Plant response rating, Foxtail, Giant",[5]; 500 g ai/ha,70
same,"Plant response rating, Sedge, Umbrella",[6]; 62 g ai/ha,0
same,"Plant response rating, Sedge, Umbrella",[6]; 250 g ai/ha,0
same,"Plant response rating, Wheat",[7]; 125 g ai/ha,0
same,"Plant response rating, Wheat",[7]; 500 g ai/ha,0
same,"Plant response rating, Wheat",[8]; 125 g ai/ha,0
same,"Plant response rating, Wheat",[8]; 500 g ai/ha,0
same,"Plant response rating, Corn",corn (Zea mays) [9]; 125 g ai/ha,0
same,"Plant response rating, Corn",corn (Zea mays) [9]; 500 g ai/ha,0
same,"Plant response rating, Barnyardgrass","[10]; 62 g ai/ha, scale 0 to 100",0
same,"Plant response rating, Barnyardgrass",[10]; [20],0
same,"Plant response rating, Corn",corn (Zea mays) [11]; 125 g ai/ha,0
same,"Plant response rating, Corn",corn (Zea mays) [11]; 500 g ai/ha,0
same,"Plant response rating, Foxtail, Giant",[12]; 125 g ai/ha,0
same,"Plant response rating, Foxtail, Giant",[12]; 500 g ai/ha,50
same,"Plant response rating, Pigweed",[13]; 125 g ai/ha,40
same,"Plant response rating, Pigweed",[13]; 500 g ai/ha,60
same,"Plant response rating, Crabgrass, Large",[14]; 125 g ai/ha,50
same,"Plant response rating, Crabgrass, Large",[14]; 500 g ai/ha,70
same,"Plant response rating, Barnyardgrass",[15]; 125 g ai/ha,30
same,"Plant response rating, Barnyardgrass",[15]; 500 g ai/ha,60
same,"Plant response rating, Velvetleaf",[16]; 125 g ai/ha,20
same,"Plant response rating, Velvetleaf",[16]; 500 g ai/ha,50
same,"Plant response rating, Barnyardgrass",[17]; 125 g ai/ha,0
same,"Plant response rating, Barnyardgrass",[17]; 500 g ai/ha,50
same,"Plant response rating, Crabgrass, Large",[18]; 125 g ai/ha,20
same,"Plant response rating, Crabgrass, Large",[18]; 500 g ai/ha,50
same,"Plant response rating, Pigweed",[19]; 125 g ai/ha,0
same,"Plant response rating, Pigweed",[19]; 500 g ai/ha,30
CC1(C)CC(S(=O)(=O)Cc2c(C(F)(F)F)nc3n(c2=O)CCCO3)=NO1 [Compound 4],"Plant response rating, Velvetleaf",[1]; 125 g ai/ha,10
same,"Plant response rating, Velvetleaf",[1]; 500 g ai/ha,90
same,"Plant response rating, Rice",rice (Oryza sativa); 31 g ai/ha,0
same,"Plant response rating, Rice",rice (Oryza sativa); 62 g ai/ha,0
same,"Plant response rating, Rice",rice (Oryza sativa); 125 g ai/ha,0
same,"Plant response rating, Rice",rice (Oryza sativa); 250 g ai/ha,0
same,"Plant response rating, Ducksalad",[2]; 31 g ai/ha,0
same,"Plant response rating, Ducksalad",[2]; 62 g ai/ha,0
same,"Plant response rating, Ducksalad",[2]; 125 g ai/ha,0
same,"Plant response rating, Ducksalad",[2]; 250 g ai/ha,0
same,"Plant response rating, Morningglory",[3]; 125 g ai/ha,0
same,"Plant response rating, Morningglory",[3]; 500 g ai/ha,50
same,"Plant response rating, Morningglory",[4]; 125 g ai/ha,0
same,"Plant response rating, Morningglory",[4]; 500 g ai/ha,70
same,"Plant response rating, Foxtail, Giant",[5]; 125 g ai/ha,90
same,"Plant response rating, Foxtail, Giant",[5]; 500 g ai/ha,100
same,"Plant response rating, Sedge, Umbrella",[6]; 31 g ai/ha,0
same,"Plant response rating, Sedge, Umbrella",[6]; 62 g ai/ha,0
same,"Plant response rating, Sedge, Umbrella",[6]; 125 g ai/ha,0
same,"Plant response rating, Sedge, Umbrella",[6]; 250 g ai/ha,0
same,"Plant response rating, Wheat",[7]; 125 g ai/ha,0
same,"Plant response rating, Wheat",[7]; 500 g ai/ha,10
same,"Plant response rating, Wheat",[8]; 125 g ai/ha,0
same,"Plant response rating, Wheat",[8]; 500 g ai/ha,40
same,"Plant response rating, Corn",corn (Zea mays) [9]; 125 g ai/ha,0
same,"Plant response rating, Corn",corn (Zea mays) [9]; 500 g ai/ha,50
same,"Plant response rating, Barnyardgrass","[10]; 31 g ai/ha, scale 0 to 100",0
same,"Plant response rating, Barnyardgrass","[10]; 62 g ai/ha, scale 0 to 100",0
same,"Plant response rating, Barnyardgrass","[10]; 125 g ai/ha, scale 0 to 100",0
same,"Plant response rating, Barnyardgrass",[10]; [20],0
same,"Plant response rating, Corn",corn (Zea mays) [11]; 125 g ai/ha,0
same,"Plant response rating, Corn",corn (Zea mays) [11]; 500 g ai/ha,50
same,"Plant response rating, Foxtail, Giant",[12]; 125 g ai/ha,70
same,"Plant response rating, Foxtail, Giant",[12]; 500 g ai/ha,80
same,"Plant response rating, Pigweed",[13]; 125 g ai/ha,30
same,"Plant response rating, Pigweed",[13]; 500 g ai/ha,100
same,"Plant response rating, Crabgrass, Large",[14]; 125 g ai/ha,60
same,"Plant response rating, Crabgrass, Large",[14]; 500 g ai/ha,100
same,"Plant response rating, Barnyardgrass",[15]; 125 g ai/ha,70
same,"Plant response rating, Barnyardgrass",[15]; 500 g ai/ha,100
same,"Plant response rating, Velvetleaf",[16]; 125 g ai/ha,50
same,"Plant response rating, Velvetleaf",[16]; 500 g ai/ha,70
same,"Plant response rating, Barnyardgrass",[17]; 125 g ai/ha,70
same,"Plant response rating, Barnyardgrass",[17]; 500 g ai/ha,80
same,"Plant response rating, Crabgrass, Large",[18]; 125 g ai/ha,60
same,"Plant response rating, Crabgrass, Large",[18]; 500 g ai/ha,80
same,"Plant response rating, Pigweed",[19]; 125 g ai/ha,30
same,"Plant response rating, Pigweed",[19]; 500 g ai/ha,60
